Key:
Siglec-7v with azido-GD3 = biological target: T1, Siglec-7v with azido-GD3 (Homo sapiens, UniProt Q9Y286, C41S); assay: Small molecule mediated Siglec-7v cross-linking in vitro (Western blot); type: biochemical; conditions: for cross-linking of Siglec-7v with azido-GD3 (biotin band slightly above Siglec-7v): 60 μM Siglec-7v, 2 mM azido-GD3, 0.3 mM cross-linker, room temperature, UV for NHQM, HoQM
T1 construct: made in house; host or cells: E. coli BL21(DE3)
Procedure: We then investigated if the various function groups synthesized onto the cross-linkers (FIG. 1B) could achieve protein-glycan cross-linking using Siglec-7v and azido-GD3 as the model system. Siglec-7v (60 μM) was incubated with 2 mM azido-GD3 for 1 h at room temperature, followed by the addition of different cross-linkers to the solution. For samples treated with cross-linker NHQM or HoQM, UV light was applied to activate the cross-linker. Alkyne-biotin was subsequently clicked with azido-GD3 in the samples, and the biotin signal was detected with Western blot using streptavidin-HRP (FIG. 1E). […] (Ref. 20). The results here indicate that NHSF can be applied to cross-link protein-glycan interactions via the sulfonyl fluoride group.
To test if small molecule cross-linker could cross-link Siglec-7v with azido-GD3 and azido-lac, 60 μM Siglec-7v was incubated with 2 mM azido-GD3 or azido-lac in PBS buffer, pH 7.4 at room temperature for 1 hr. The solution was treated with or without 0.3 mM NHSF or NHBr or NHFS or NHQM or HoQM at room temperature for 1 hr, respectively. The NHQM or HoQM was then illuminated with or without UV for 15 mins at wavelength 365 nm. After that, 200 μM alkyne-biotin, 0.05 mM CuSO4, 1 mM THPTA and 1 mM sodium ascorbate were added and the reaction mixture was incubated at room temperature in dark environment for 0.5 hours. Samples were then boiled at 95° C. for 5 mins and run Western blot against 6× His tag antibody or streptavidin-horseradish peroxidase (HRP).

[1] = Cross-linking of azido-GD3 by SFY incorporated Siglec-7v in vitro (Western blot); type: biochemical; conditions: 60 μM Siglec-7v(127SFY), 2 mM azido-GD3
Procedure: FIGS. 17A-17D provide a comparative study between NHSF pretreated Siglec-7v (Siglec-7v-SF) and Siglec-7v(127SFY). […] Siglec-7v(127SFY) or Siglec-7v-SF was incubated with azido-GD3 or azido-lac followed with Western blot detection. The azido group was click reacted with alkyne-biotin for Western blot detection of GD3/lac. […] Cells were treated with protein, washed, stained with a fluorescently labeled antibody specific for the His×6 tag appended at the C-terminus of Siglec-7v, and quantified with flow cytometry. […] Pre-stained BT-20 cells were incubated with 12 μM Siglec-7v-SF or Siglec-7v(127SFY) for 2 h. Cells were then washed and incubated with NK-92 cells for 4 h. Cells were stained with propidium iodide and NK cytotoxicity was evaluated by flow cytometry. Control group: no protein treatment. The line and error bar represent mean±SEM; n=3 independent batches of Siglec-7v proteins. *** p<0.001; NS, not significant, multiple t test.
We then determined if SFY could enable Siglec-7v to cross-link the bound glycan ligand. Inspired by NHSF-mediated cross-linking of azido-GD3 through Lys on Siglec-7v protein, we incorporated SFY into individual Lys sites of Siglec-7v, including sites 20, 24, 75, 104, 127, 131, and 135. […] Cross-linking of azido-GD3 was detected for Siglec-7v(104SFY) and Siglec-7v(127SFY). […]

T1 sequence (Q9Y286 with tags, fused parts or gaps C41S): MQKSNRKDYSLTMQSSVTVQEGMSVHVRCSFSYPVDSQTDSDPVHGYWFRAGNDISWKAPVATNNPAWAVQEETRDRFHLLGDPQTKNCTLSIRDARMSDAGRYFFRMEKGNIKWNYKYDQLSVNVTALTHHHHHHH

Compound: O=C(CCCNC(=O)c1ccc(S(=O)(=O)F)cc1)ON1C(=O)CC(S(=O)(=O)[O-])C1=O.[Na+] (stereo not shown) [NHSF—C3, Sodium 1-((4-(4-(fluorosulfonyl)benzamido)butanoyl)oxy)-2,5-dioxopyrrolidine-3-sulfonate]
- cross-linking efficiency on further increase of the linker length (Siglec-7v with azido-GD3; Siglec-7v with azido-GD3): lowered

Compound: O=C(c1ccc(OCc2ccccc2[N+](=O)[O-])c(C(F)F)c1)N1CCN(C(=O)c2ccc(OCc3ccccc3[N+](=O)[O-])c(C(F)F)c2)CC1 [HoQM]
- cross-linking of Siglec-7v with azido-GD3 (biotin band slightly above Siglec-7v) (Siglec-7v with azido-GD3): not

Compound: O=C(Cc1ccc(OS(=O)(=O)F)cc1)ON1C(=O)CCC1=O [NHFS, 2,5-dioxopyrrolidin-1-yl 2-(4-((fluorosulfonyl)oxy)-phenyl)acetate]
- cross-linking of Siglec-7v with azido-GD3 (biotin band slightly above Siglec-7v) (Siglec-7v with azido-GD3): not

Compound: O=C(CCCCCCCNC(=O)c1ccc(S(=O)(=O)F)cc1)ON1C(=O)CC(S(=O)(=O)[O-])C1=O.[Na+] (stereo not shown) [NHSF—C7, sodium 1-((8-(4-(fluorosulfonyl)benzamido)octanoyl)oxy)-2,5-dioxopyrrolidine-3-sulfonate]
- cross-linking efficiency on further increase of the linker length (Siglec-7v with azido-GD3; Siglec-7v with azido-GD3): lowered

Compound: O=C(ON1C(=O)CCC1=O)c1ccc(OCc2ccccc2[N+](=O)[O-])c(C(F)F)c1 [NHQM]
- cross-linking of Siglec-7v with azido-GD3 (biotin band slightly above Siglec-7v) (Siglec-7v with azido-GD3): not

Compound: O=C(CCNC(=O)c1ccc(S(=O)(=O)F)cc1)ON1C(=O)CC(S(=O)(=O)[O-])C1=O.[Na+] (stereo not shown) [NHSF—C2, Sodium 1-((3-(4-(fluorosulfonyl)benzamido)propanoyl)oxy)-2,5-dioxopyrrolidine-3-sulfonate]
- cross-linking band intensity in comparison with NHSF (Siglec-7v with azido-GD3; Siglec-7v with azido-GD3): 1.5 fold

Compound: CC(=O)N[C@H]1[C@H]([C@H](O)[C@H](O)CO)O[C@@](O[C@H]2[C@@H](O)[C@@H](CO)O[C@@H](O[C@H]3[C@H](O)[C@@H](O)C(O)O[C@@H]3CO)[C@@H]2O)(C(=O)O)C[C@@H]1O (stereo partly shown) [3′-sialyllactose]
- effect of added ligand on crosslinking of siglec-7v(127SFY) with azido-GD3 [1]: did not reduce

From US20240252652A1, “PROTEINS HAVING UNNATURAL AMINO ACIDS AND METHODS OF USE” (The Regents of the University of California, priority 2021, published 2024)
